How the values were obtained:
MAPKAPK3 = experiment: Protein kinase expression in Caki-1 whole cell lysates (Western blot), MAPKAPK3; format: cell-based, human; settings: Caki-1, by 12 hours post-treatment
Procedure: The Caki-1 cells were then lysed and a Western blot analysis was performed with anti-MAPKAPK-3 antibody. Blots were probed with anti-β-Actin antibody as a control for protein loading.
Cell lysis and immunoblotting: Caki-1 cells were seeded into 10-cm dishes at a density of 2.2×10^6 and incubated for 24 hours. […] After microcentrifuging for 5 minutes at 4° C., pellets were treated with ice-cold lysis buffer with cell extraction buffer (BioSource, Camarillo, Calif.) containing 0.1% protease inhibitors and 1% phosphatase inhibitors cocktail (Fisher Scientific, Pittsburgh, Pa.) for 10 minutes, then sonicated for 10 seconds three times, and placed on ice. The lysed cells were centrifuged at 10,000×g at 4° C. for 10 minutes to remove the pellets representing the insoluble cell fraction.
The protein concentration was determined with BCA protein dye reagent (Pierce, Fisher Scientific Pittsburgh, Pa.). […]

isolated TrRx = biological target: T1, isolated TrRx (Homo sapiens, UniProt Q16881); settings: isolated enzyme; read-out: concentration inhibiting 50% of the enzymatic activity of isolated TrRx; cited from earlier work
T1 sequence (Q16881 151-649 limits assumed): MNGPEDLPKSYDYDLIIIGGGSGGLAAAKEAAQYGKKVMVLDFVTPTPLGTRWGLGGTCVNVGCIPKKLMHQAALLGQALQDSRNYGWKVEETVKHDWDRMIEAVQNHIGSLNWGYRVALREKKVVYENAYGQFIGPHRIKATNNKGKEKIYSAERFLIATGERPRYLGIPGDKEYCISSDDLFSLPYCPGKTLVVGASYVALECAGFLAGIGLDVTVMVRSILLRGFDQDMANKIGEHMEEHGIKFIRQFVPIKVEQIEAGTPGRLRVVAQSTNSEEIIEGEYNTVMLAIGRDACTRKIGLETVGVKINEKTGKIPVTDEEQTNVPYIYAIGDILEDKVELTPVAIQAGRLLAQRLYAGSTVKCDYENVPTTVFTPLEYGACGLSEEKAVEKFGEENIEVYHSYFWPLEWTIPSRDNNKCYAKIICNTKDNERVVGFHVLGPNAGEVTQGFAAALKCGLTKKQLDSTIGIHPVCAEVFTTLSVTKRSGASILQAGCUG

Caki-1 = experiment: Cell viability assay (XTT), Caki-1; format: cell-based, human; settings: 72 h incubation
Source text: (§1) Cell Culture: Human renal cell carcinoma lines A498, Caki-1 and UO31, as well as the human prostate carcinoma cell lines DU145 and PC3 were newly obtained for these studies from the American Type Culture Collection (ATCC) (Manassas, Va., USA) and cultured in Roswell Park Memorial Institute (RPMI-1640) (Mediatech Inc., Manassas, Va.) media containing 10% fetal bovine serum (FBS, Life Technologies, Grand Island, N.Y.), 1% Minimum Essential Media (MEM) nonessential amino acids (NEAA, Mediatech) and 1% penicillin-streptomycin (PenStrep, Mediatech). HEK-293T cells were newly purchased from ATCC (Manassas, Va., USA) and maintained in Dulbecco's modified Eagle's medium (DMEM) (Mediatech) supplemented with 10% FBS, 1% NEAA and 1% PenStrep. Normal human renal epithelial cells (RPTC) were purchased from Lifeline Cell Technology (Lifeline Cell Technology, Frederick, Md., USA) and maintained in Lifeline's Renal Life Medium from Lifeline Cell Technology supplemented with 2.4 mM L-glutamine, 5 μg/mL rh insulin, 1.0 nM epinephrine, 10 nM triiodothyronine, 0.1 μg/mL hydrocortisone hemisuccinate, 10 ng/mL rhEGF, 0.50% FBS, 5 μg/mL transferrin PS. All cells were cultured at 37° C. and 5% CO2 in a humidified incubator.
The optical absorbance of each well in a 96-well plate was quantified using BioTek ELx808 absorbance microplate reader (BioTek Winooski, Vt.) set at 450 nm wavelength. The percentage of surviving cells was calculated from the ratio of absorbance of treated to untreated cells.

[1] = tested on: TrRx in human ovarian A2780 cancer cells; settings: 10 μM; cited from earlier work
[2] = tested on: TrRx in human breast MCF-7 cancer cells; settings: 4 μM; cited from earlier work
plasmid pBR322 DNA = experiment: Electrophoresis mobility shift assay; format: binding; settings: metal/DNAbp ratios 0.25-2.0, 37° C., 20 h
Procedure: Agarose gel electrophoresis assays were performed whereby decreased electrophoretic mobility of both forms were taken as evidence of metal-DNA binding.
Mobility Shift Assay: 10 μL aliquots of pBR322 plasmid DNA (20 μg/mL) in buffer (5 mM Tris/HCl, 50 mM NaClO4, pH=7.39) were incubated with different concentrations of the compounds (2, 3, 4, 5), and titanocene dichloride) (in the range 0.25 and 4.0 metal complex:DNA bp) at 37° C. for 20 h in the dark. Samples of free DNA and cisplatin-DNA were prepared as controls. After the incubation period, the samples were loaded onto the 1% agarose gel. The samples were separated by electrophoresis for 1.5 h at 80 V in Tris-acetate/EDTA buffer (TAE). Afterwards, the gel was stained for 30 min with a solution of GelRed nucleic acid stain.

HEK-293T = experiment: Cell viability assay (XTT), HEK-293T; format: cell-based; settings: 72 h incubation; non-tumorigenic human embryonic kidney cell line
Procedure: HEK-293T cells were newly purchased from ATCC (Manassas, Va., USA) and maintained in Dulbecco's modified Eagle's medium (DMEM) (Mediatech) supplemented with 10% FBS, 1% NEAA and 1% PenStrep. […] All cells were cultured at 37° C. and 5% CO2 in a humidified incubator.

RPTC = experiment: Cell viability assay (XTT), RPTC; format: cell-based; settings: 72 h incubation; human renal proximal tubular cells
Source text: as §1
Cell Viability Assay: Cells were seeded at a concentration of 5000 cells/90 μl per well of either RPMI or DMEM without phenol red and without antibiotics, supplemented with 10% FBS and 2 mM L-glutamine into tissue culture grade 96-well flat bottom microplates (BioLite Microwell Plate, Fisher Scientific, Waltham, Mass., USA) and grown for 24 h at 37° C. in a humidified incubator. Afterwards, the intermediate dilutions of the compounds were added to the wells (10 μL) to obtain a final concentration ranging from 0.1 to 200 μM, and the cells were incubated for 24 h or 72 h. […] The optical absorbance of each well in a 96-well plate was quantified using BioTek ELx808 absorbance microplate reader (BioTek Winooski, Vt.) set at 450 nm wavelength. The percentage of surviving cells was calculated from the ratio of absorbance of treated to untreated cells.

[3] = Stability in solution (DMSO-d6, CDCl3, DMSO/PBS); format: physicochemical
Source text: (§2) Both compound 2 and compound 3 were less acidic than titanocene dichloride and were soluble in DMSO/water, DMSO/PBS and DMSO/media (1:99) mixtures at micromolar concentrations. These compounds were unusually stable methyl-containing titanocene moieties that were stable as solids at room temperature, while exposed to air in CDCl3 solution for at least five days.

[4] = Solubility in DMSO/aqueous mixtures; format: physicochemical; settings: at micromolar concentrations
Source text: as §2

Procedure for thioredoxin reductase: After 5, 12 or 24 hours of treatment incubation cells were washed three times in PBS, and lysed by douncing using scrapers and sheer force though syringe with a 34 gauge needle in assay buffer (Abeam Thioredoxin Reductase Assay kit, ab83463) added to 1 mM protease inhibitor cocktail (Abeam, ab65621). The lysates were centrifuged at 10,000×g for 15 minutes at 4° C. to isolate insoluble material. The total protein concentrations of soluble lysates were measured using the BCA Protein Assay (Life Technologies). The soluble lysates were incubated for 20 minutes in assay buffer with a proprietary thioredoxin reductase specific inhibitor before adding a specific substrate, DTNB (5, 5′-dithiobis(2-nitrobenzoic) acid), and measuring activity at 1 minute intervals for 30 minutes using the BioTek fluorescence microplate reader (BioTek U.S., Winooski, Vt.) set at =412 nm. Lysates were tested in duplicate. TrxR activity was calculated based on the linear amount of TNB produced per minute per mg of total protein and corrected for background activity from enzymes other than TrxR in the lysates.

Compound: CC(=O)OC[C@H]1O[C@@H]([S-])[C@H](OC(C)=O)[C@@H](OC(C)=O)[C@@H]1OC(C)=O.CCP(CC)CC.[Au+] [Auranofin]
- expression of MAPKAPK3 (MAPKAPK3): failed to down-regulate
- IC50 (isolated TrRx): 0.02 µM
- IC50 (Caki-1): 3.08 ± 0.13 µM
- inhibition of total TrRx activity in A2780 cells [1]: 30%
- inhibition of thioredoxin reductase activity (thioredoxin reductase; Caki-1 cells, 5 μM, five hour incubation): 74.1%
- IC50 (thioredoxin reductase; read-out: IC50 thioredoxin reductase in Caki-1 cells, after twelve hours): 0.61 µM
- inhibition of total TrRx activity in MCF-7 cells [2]: 18%

Compound: N.N.[Cl][Pt][Cl] [Cisplatin, reference compound]
- IC50 (Caki-1): 29 ± 4.11 µM
- effect on electrophoretic mobility of plasmid DNA forms (plasmid pBR322 DNA): decreased mobility of the CCC form and increased mobility of the OC form
- IC50 (HEK-293T): 3.27 ± 0.13 µM

Compound: COc1ccc(C[C]2([Ti+2][C]3(Cc4ccc(OC)cc4)C=CC=C3)C=CC=C2)cc1.[Cl-].[Cl-] [Titanocene Y, reference compound]
- IC50 (Caki-1): 29.4 ± 4.18 µM
- IC50 (HEK-293T): > 200 µM

Compound: [Au(Hmba)(MPPF)] [Precursor 5]
- IC50 (RPTC): 3.78 ± 0.13 µM
- IC50 (Caki-1): 3.6 ± 0.342 µM
- effect on electrophoretic mobility of plasmid DNA forms (plasmid pBR322 DNA): did not affect the mobility
- IC50 (HEK-293T): 3 ± 0.07 µM

Compound: [Cl-].[Cl-].[Ti+4].c1cc[cH-]c1.c1cc[cH-]c1 [[(π-C5H5)2TiCl2], reference compound]
- IC50 (Caki-1): > 200 µM
- IC50 (HEK-293T): > 200 µM

Compound: [(η-C5H5)2TiMe(μ-mba)Au(MPPF)] [Compound 3]
- IC50 (RPTC): 3.76 ± 0.21 µM
- IC50 (Caki-1): 4.11 ± 0.64 µM
- effect on electrophoretic mobility of plasmid DNA forms (plasmid pBR322 DNA): did not affect the mobility
- IC50 (HEK-293T): 3.09 ± 0.003 µM
- half-life in DMSO-d6 ([3]; DMSO-d6): thirty-two
- half-life fold larger than corresponding compound 6 / compound 7 ([3]; DMSO-d6, same solvent): sixty-four
- UV-vis spectra over time ([3]; micromolar concentration in 1:99 DMSO/PBS, 23 h, physiological pH): did not change over time
- solubility in DMSO/water, DMSO/PBS and DMSO/media (1:99) mixtures [4]: soluble

From patent US9315531B2, “Titanocene-gold derivatives comprising thiolato ligands” (Research Foundation of the City University of New York, priority 2014, dated 2016)
